Assay [1] has as its target T1, purified H-2 D^b molecules (Mus musculus, UniProt P01899).
T1 construct: made in house
In words: MHC peptide-binding assay, purified H-2 D^b. On the procedure:
(§1) Briefly, 0.1-1 nM of radiolabeled peptide was co-incubated at room temperature with 1 μM to 1 nM of purified MHC in the presence of 1-3 μM human β2-microglobulin (Scripps Laboratories) and a mixture of protease inhibitors. After a 2 day incubation, binding of the radiolabeled peptide to the corresponding MHC class I molecule was determined by capturing MHC/peptide complexes on Lumitrac 600 microplates (Greiner Bio-One) coated with either the Y3 (anti-H-2 K^b) or 28-14-8S (anti-H-2 D^b, L^d and D^q) Ab, followed by measurement of bound counts per minute (cpm) using the TopCount microscintillation counter (Packard).

The subject of assay [2] is CD8^+ T cells. Kind of assay: IFN-γ ELISPOT with CD8^+ T cells of DENV2-infected C57BL/6 mice. The following applies: PL046 or S221 infected C57BL/6 mice. The class given is cell-based.
Assay [3] addresses T2, purified H-2 K^b molecules (Mus musculus, UniProt P01901).
T2 construct: made in house
In words: MHC peptide-binding assay, purified H-2 K^b. On the procedure:
as §1, with “MHC purification and quantitative assays to measure the binding affinity of peptides to purified H-2 K^b and H-2 D^b molecules were performed as previously described (Sidney et al., Curr Protoc Immunol 18:1813 2001); Vitiello et al., J Immunol 157:5555 (1996)). Briefly,” for “Briefly,”
To confirm the MHC class I restriction of the 12 identified epitopes, measurements were performed of their MHC binding capacity using purified K^b and D^b molecules in an in vitro binding assay. Seven of the 12 epitopes bound the predicted allele with either high or intermediate affinity, as indicated by an IC50 of <50 nM or <500 nM, respectively. The five remaining epitopes also bound with biologically relevant affinities in the 500-2000 nM range.

In assay [4] the test system is CD8^+ T cells. Kind of assay: Intracellular cytokine staining (IFN-γ), splenocytes of S221-infected IFN-α/βR^−/− mice. The class given is cell-based. The following applies: day 7 after 10^10 GE S221. On the procedure: (§2) All Ab were purchased from eBioscience with the exception of anti-CD8α-PerCP and anti-CD107a-FITC which were obtained from BD Biosciences. RBC in blood were lysed using RBC lysis buffer (eBioscience). For surface staining, splenocytes or blood cells were washed, incubated with supernatant from 2.4G2-producing hybridoma cells to block Fc receptors, and labeled with anti-CD8α-PerCP, anti-CD44-APC, and anti-CD62L-PE. For intracellular cytokine staining, 10^6 splenocytes or 10^5 blood cells were plated in 96-well U-bottom plates and stimulated with individual DENV peptides (0.1 μg/ml) in the presence of brefeldin A (GolgiPlug, BD Biosciences) for 5 h. For CD107a staining, CD107a-FITC (or rat IgG2a-FITC) was added to the wells at the same time as the peptide. Cells were washed, incubated with 2.4G2 supernatant, labeled with anti-CD8α-PerCP, fixed and permeabilized using the BD Cytofix/Cytoperm Kit, and stained with anti-IFN-γ-APC and anti-TNF-α-PE. Samples were read on a FACS Caliber (BD Biosciences) and analyzed using FloJo software (Tree Star, Inc.)
The S221-specific CD8^+ T cell response in the IFN-α/βR^−/− mice was studied. […]
The S221-specific CD8^+ T cell response in IFN-α/βR^−/− mice was further studied. […] Referring to FIGS. 5C, 5E and 5F, the number of splenic CD8^+ T cells in naïve (n=4) and infected (n=7) mice was measured (results described above). […] The data are expressed as the percent±SEM of seven mice tested in three independent experiments.
The initial epitope identification studies were performed in wild-type mice. […] Cells were then stained for surface CD8 and intracellular IFN-γ and analyzed by flow cytometry. […] Results are expressed as the mean±SEM of 13 wild-type and 7 IFN-α/βR^−/− mice were tested in at least three independent experiments. Referring FIGS. 8C and D, the figures show kinetics of the DENV-specific CD8^+ T cell response as determined by the study. […]

For assay [5], the system named is CD8^+ T cells. In words: Intracellular cytokine staining (IFN-γ), splenocytes of S221-infected wild-type mice. The settings on record: wild-type C57BL/6, day 7 after 10^11 GE S221, peptide 0.1 μg/ml, 5 h. The class given is cell-based, C57BL/6 mice. On the procedure:
as §2
To confirm that the IFN-γ response to the MHC class I-binding DENV peptides was mediated by CD8^+ T cells, intracellular cytokine staining (ICS) on CD8^+ T cells isolated from S221-infected wild-type mice was performed. Splenocytes were harvested from C57BL/6 mice 7 days after infection with 10^11 genomic equivlalents (GE) S221 and were re-stimulated in vitro with individual DENV2 peptides or an irrelevant peptide (irr) at 0.1 μg/ml in the presence of brefeldin A for 5 h. Cells were then stained for surface CD8 and intracellular IFN-γ and analyzed by flow cytometry. […] The percent of CD8^+ T cells producing IFN-γ is indicated. Referring to FIG. 2B, the figure is a summary of the DENV2-specific CD8^+ IFN-γ^+ response. The response to the irrelevant control peptide was subtracted from the responses to each DENV2 peptide. Each symbol represents one mouse and the bar represents the geometric mean. The identification of the 12 positive peptides for S221 was confirmed by the intracellular cytokine staining (ICS) (FIG. 2A), and the response to the 8 most dominant peptides was determined (FIG. 2B). The responses ranged from 0.14% recognizing NS2A 36 to 9.8% of CD8^+ T cells recognizing NS4B 99.
Splenocytes were harvested from naïve C57BL/6 mice or mice 7 days after infection with 10^11 GE of S221. The percent of CD8^+ T cells expressing CD44 and CD62L was determined in four independent studies (FIG. 3A). On day 7 after infection, splenocytes were stimulated with the eight major DENV2 peptides (individually; at 0.1 μg/ml) in the presence of brefeldin A, and stained for surface CD8 and intracellular IFN-γ. The percent of CD8^+ T cells producing IFN-γ in response to the irrelevant control peptide was subtracted from the response to each DENV2 peptide to determine the net response. The net responses to the eight major DENV2 peptides were added to determine the percent of DENV2-specific CD44^hi, CD62^lo, and CD44^hiCD62L^lo CD8^+ T cells (FIG. 3B). The data are expressed as the mean percent±SEM of 11-14 mice tested in at least four independent experiments.

For assay [6], the system named is DENV peptide-pulsed target cells. Kind of assay: In vivo cytotoxicity assay. The following applies: IFN-α/βR^−/− mice infected 7 days previously with 10^10 GE S221; 4 h after i.v. transfer; targets pulsed 0.5 μg/ml.
Assay [7] deals with CD8^+ T cells. In words: TNF-α and CD107a staining after peptide re-stimulation. Type of assay: cell-based, wild-type or IFN-α/βR^−/− mice. The following applies: splenocytes day 7 after S221 infection. On the procedure: as §2
Because polyfunctional CD8^+ T cell responses are associated with protection (Harari et al., Immunol Rev 211:236 (2006)), the phenotype of the DENV-specific CD8^+ T cells in wild-type and IFN-α/βR^−/− mice was studied in more detail by measuring CD107a expression (CD107a, or LAMP-1, is expressed on the cell surface upon degranulation) and TNF-α production for two of the DENV-specific CD8^+ T cell populations, as described above. To collect the data, splenocytes harvested from wild-type or IFN-α/βR^−/− mice 7 days after infection with 10^11 or 10^10 GE of S221, respectively, were re-stimulated in vitro with C51-59, NS4B99-107, or an irrelevant peptide. An anti-CD107a Ab was added for the duration of the stimulation. Cells were then stained for surface CD8, intracellular IFN-γ and TNF-α, and analyzed by flow cytometry.

Where [8] appears, read: purified MHC, radiolabeled peptide competition, read-out: Binding affinity (IC50 nM) H2-D^b.
The mark [9] stands for this setting: purified MHC, radiolabeled peptide competition, read-out: Binding affinity (IC50 nM) H2-K^b.

Like-named read-outs stand apart in the source and are kept apart here. Ends that are not written are not given here.

Results on ten sequences are retold here after patent publication US20110150914A1, “COMPOSITIONS AND METHODS FOR DENGUE VIRUS (DV) TREATMENT AND VACCINATION” (priority 2008, published 2011).

T2 sequence (P61769 21-119): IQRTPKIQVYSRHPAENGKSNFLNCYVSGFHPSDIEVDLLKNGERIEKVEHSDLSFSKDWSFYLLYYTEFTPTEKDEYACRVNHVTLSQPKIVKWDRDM
T2 sequence (P01901 22-369): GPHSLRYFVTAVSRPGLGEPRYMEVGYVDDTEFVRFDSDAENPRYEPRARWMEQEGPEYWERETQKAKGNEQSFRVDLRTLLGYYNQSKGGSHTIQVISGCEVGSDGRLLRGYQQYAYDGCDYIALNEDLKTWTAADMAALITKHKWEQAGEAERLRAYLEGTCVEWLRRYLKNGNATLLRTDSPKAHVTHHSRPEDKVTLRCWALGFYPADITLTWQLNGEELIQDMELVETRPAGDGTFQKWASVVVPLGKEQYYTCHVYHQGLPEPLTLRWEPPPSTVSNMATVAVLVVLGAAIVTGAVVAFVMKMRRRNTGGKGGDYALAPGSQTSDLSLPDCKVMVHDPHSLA
T1 sequence (P61769 21-119): as the sequence (P61769 21-119) above
T1 sequence (P01899 25-362): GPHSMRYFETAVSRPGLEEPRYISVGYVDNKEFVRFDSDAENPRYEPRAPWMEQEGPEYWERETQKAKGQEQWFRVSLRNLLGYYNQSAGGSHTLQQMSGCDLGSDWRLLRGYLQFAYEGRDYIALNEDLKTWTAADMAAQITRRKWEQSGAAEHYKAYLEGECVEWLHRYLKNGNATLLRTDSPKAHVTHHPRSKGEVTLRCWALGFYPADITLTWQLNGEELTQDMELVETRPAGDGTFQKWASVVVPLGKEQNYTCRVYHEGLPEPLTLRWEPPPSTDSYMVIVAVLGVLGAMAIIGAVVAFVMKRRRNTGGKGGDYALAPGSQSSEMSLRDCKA

In the case of FSLGVLGM [NS2A8-15], the 50% inhibitory concentration (IC50) was 1800 nM in assay [1] (setting [8]) and > 2000 nM in assay [3]. In the assay on CD8^+ T cells [2], the “IFN-γ ELISPOT response (net SFC per 10^6 CD8^+ T cells), in words” value was “highest responses”.

Turning to GMLQGRGPL [Epitope C36-44], the IC50 worked out at 820 nM in assay [1] (setting [8]) and 1340 nM in assay [3] (setting [9]).

Consider LAVTIMAIL [NS2A145-153], for which the IC50 was 644 nM in assay [1] (setting [8]) and > 2000 nM in assay [3].

In the case of MTMRCIGI [Epitope E-2-6], the figures for the IC50 in assay [1] and in assay [3] (setting [9]) were > 2000 nM and 1080 nM, respectively. In the assay with CD8^+ T cells [2], the “IFN-γ ELISPOT response (net SFC per 10^6 CD8^+ T cells), in words” value is reported as “highest responses”.

In the case of RALIFILL [Epitope M60-67], the “% of splenic CD8^+ T cells recognizing the peptide” value in the assay with CD8^+ T cells [4] is given as 11%. Besides, the IC50 is > 2000 nM in assay [1] and 22 nM in assay [3] (setting [9]). Besides, the “percent of CD8^+ T cells producing IFN-γ / recognizing the peptide” value in the assay with CD8^+ T cells [5] came to 0.4%.

For the sequence RMLINRFTM [NS5237-45], the “percentage killing of peptide-pulsed target cells” value in assay [6] is on record as 46%. For the same sequence, the results for the 50% inhibitory concentration (IC50) in assay [1] (setting [8]) and in assay [3] were 21 nM and > 2000 nM, respectively. For the same sequence, the “IFN-γ ELISPOT response (net SFC per 10^6 CD8^+ T cells), in words” value with CD8^+ T cells [2] is “highest responses”.

In the case of TAIANQATV [NS4B66-74], the IC50 in assay [1] (setting [8]) is 1.3 nM; in assay [3], > 2000 nM.

For VAFLRFLTI [Epitope C51-59], the IC50 in assay [1] (setting [8]) was 1380 nM; in assay [3] (setting [9]), 20 nM. For the same sequence, the “CD107a surface expression (degranulation)” value in the assay on CD8^+ T cells [7] is given as “expressed CD107a on the surface”. In the assay with CD8^+ T cells [7], the “TNF-α production by peptide-specific CD8^+ T cells” value was “produced TNF-α”. For the same sequence, the “IFN-γ ELISPOT response (net SFC per 10^6 CD8^+ T cells), in words” value with CD8^+ T cells [2] is “highest responses”.

As for VAVSFVTLI [NS2A36-44], the 50% inhibitory concentration (IC50) in assay [1] (setting [8]) turned out to be 997 nM; in assay [3] (setting [9]), 12 nM. The “percent of CD8^+ T cells producing IFN-γ / recognizing the peptide” value in the assay on CD8^+ T cells [5] is 0.14%.

Regarding VSWTMKIL [Epitope E451-458], in assay [1], the IC50 is > 2000 nM.

By IC50 is commonly meant the concentration that inhibits the measured activity by half.
